Test results from PubChem BioAssay (NCI).
Where “and” joins values, the source holds several entries; their conditions need not be identical. Equal entries are not always repeated.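 Tested at 5 concentrations; 48 h exposure; 96-well plates; endpoints linearly interpolated, else capped at highest concentration. Abbreviation: GI50, concentration required for 50% inhibition of growth. The concentration for full growth arrest is given as TGI.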 Numbered stars: 1 amine (or outer) side, 2 acyl side, 3 side chain; on linkers, the order of the positions; unused ones are H or OH. Bridge positions count the residues as written; N and C are the ends. Square brackets hold non-standard residues; d marks the D form. Peptide text beside a SMILES is read from it. I, II: the chains in the order shown. Actinocin(1to9) = Cc1c2oc3c(C)ccc(C(=O)[*:2])c3nc-2c(C(=O)[*:1])c(N)c1=O; NMeY = CN[CH](Cc1ccc(O)cc1)C(=O)O; Sar = CNCC(=O)O

Key:
Assay in all cases: growth of human tumour cells (NCI), 48 h
BT-549 breast = system: BT-549 breast
HOP-62 NSCLC = system: HOP-62 NSCLC
SK-OV-3 ovarian = system: SK-OV-3 ovarian
SR leukemia = system: SR leukemia
ACHN renal = system: ACHN renal
HCT-116 colon = system: HCT-116 colon
NCI-H23 lung = system: NCI-H23 lung
RPMI-8226 leukemia = system: RPMI-8226 leukemia
SF-539 CNS = system: SF-539 CNS
U251 CNS = system: U251 CNS

| SMILES | GI50 (BT-549 breast) | TGI (BT-549 breast) | GI50 (HOP-62 NSCLC) | TGI (HOP-62 NSCLC) | GI50 (SK-OV-3 ovarian) | TGI (SK-OV-3 ovarian) | GI50 (SR leukemia) | TGI (SR leukemia) | GI50 (ACHN renal) | TGI (ACHN renal) | GI50 (HCT-116 colon) | TGI (HCT-116 colon) | GI50 (NCI-H23 lung) | TGI (NCI-H23 lung) | GI50 (RPMI-8226 leukemia) | TGI (RPMI-8226 leukemia) | GI50 (SF-539 CNS) | TGI (SF-539 CNS) | GI50 (U251 CNS) | TGI (U251 CNS) |
| --- | --- | --- | --- | --- | --- | --- | --- | --- | --- | --- | --- | --- | --- | --- | --- | --- | --- | --- | --- | --- |
| COc1cc(/C=C2\CCCC3=C2N=C2SC(C)=NN2C3c2cc(OC)c(OC)c(OC)c2)cc(OC)c1OC (stereo not given) | > 100 µM | > 100 µM | > 100 µM | > 100 µM | > 100 µM | > 100 µM | 0.347 µM | > 100 µM |  |  |  |  |  |  |  |  |  |  |  |  |
| CS(=O)(=O)N(c1cc(-c2ccc3ncnc(Nc4ccc(F)c(Cl)c4)c3c2)cnc1Cl)S(C)(=O)=O | 0.638 µM | 5.06 µM | 0.957 µM | 14.7 µM | 0.6 µM | 4.31 µM | 4.35 µM | > 100 µM | 1.11 µM | 12.4 µM | 1.68 µM | 6.7 µM | 0.861 µM | 5.15 µM | 0.826 µM | 3.98 µM | 1.05 µM | 4.83 µM | 1.15 µM | 13.4 µM |
| Cc1ccc(C(=O)NC2CC2)cc1-c1ccc2[nH]ncc2c1 | > 25 µM | > 25 µM | > 25 µM | > 25 µM | > 25 µM | > 25 µM | > 25 µM | > 25 µM | > 25 µM | > 25 µM | > 25 µM | > 25 µM | > 25 µM | > 25 µM | > 25 µM | > 25 µM | > 25 µM | > 25 µM | > 25 µM | > 25 µM |
| CO/N=C(\COc1ccc2oc(-c3ccccc3)cc(=O)c2c1)c1ccc(F)cc1 | 29.6 µM | > 100 µM | 18.6 µM | 35.2 µM | 20 µM | 44.8 µM | 15.7 µM | > 100 µM | 17.2 µM | 34.5 µM | 20.3 µM | 48.2 µM | 23.1 µM | 64.7 µM | 24.6 µM | > 100 µM | 20.9 µM | 42.9 µM | 18 µM | 35.1 µM |
| COC(=O)N[C@H]1CCc2c(Cl)c(OC)c(OC)c(OC)c2-c2ccc(SC)c(=O)cc21 | < 0.01 µM | 1.52 µM | < 0.01 µM | > 100 µM | < 0.01 µM | > 100 µM | < 0.01 µM | > 66.6 µM | < 0.01 µM | 38.1 µM | < 0.01 µM |  | < 0.01 µM | 37 µM | < 0.01 µM | > 42.8 µM | < 0.01 µM | < 0.01 µM | < 0.01 µM | > 40.5 µM |
| O=P(O)(O)OCC1OC(n2cnc3c(NCc4ccccc4)ncnc32)C(O)C1O (stereo not given) | 0.473 µM | 2.49 µM | 1.74 µM | 27.9 µM | 2.73 µM | 11.1 µM | 3.34 µM | > 64.2 µM | 1.4 µM | > 69.1 µM | 1.66 µM | > 32.1 µM | 1.97 µM | 31.4 µM | 3.97 µM | > 52.1 µM | 1.55 µM | 4.73 µM | 5.21 µM | > 100 µM |
| C[C@@H]1CC[C@@]2(NC1)O[C@H]1C[C@H]3[C@@H]4CC[C@H]5C[C@@H](O)CC[C@]5(C)[C@H]4CC[C@]3(C)[C@H]1[C@@H]2C |  | > 100 µM |  | > 100 µM |  | > 100 µM |  | > 100 µM |  | 85.5 µM |  | > 100 µM |  | > 100 µM |  | 85.6 µM |  | 77.6 µM |  | > 100 µM |
| CC1=NOC(=O)/C1=C/c1ccc2c(c1)OCO2 |  | 56.8 µM |  | 40.9 µM |  | > 100 µM |  | 52.5 µM |  | 38.2 µM |  | > 100 µM |  | > 100 µM |  | 55.2 µM |  | 64.9 µM |  | 38 µM |
| CC(C)(C)OC(=O)N[C@@H](Cc1ccccc1)C(=O)N(Cc1ccccc1)C1(C(=O)NCc2ccccc2)CCN(Cc2ccccc2)CC1 | 2.11 µM | 8 µM | 3.89 µM | > 100 µM | 3 µM | > 100 µM | 2.33 µM | 7.51 µM |  |  | 2.42 µM | 10.1 µM | 5.67 µM | > 100 µM | 2.18 µM | 6.98 µM |  |  | 3.19 µM | > 100 µM |
| CCOC(=O)CN1C(=O)c2cc([N+](=O)[O-])cc3cc([N+](=O)[O-])cc(c23)C1=O |  | > 100 µM |  | > 100 µM |  | > 100 µM |  | 30.7 µM |  | > 100 µM |  | > 100 µM |  | > 100 µM |  | > 100 µM |  | 84.3 µM |  | > 100 µM |
| COCCNc1cncc(C(N)=O)c1 |  | > 100 µM |  | > 100 µM |  | > 100 µM |  | > 100 µM |  | > 100 µM |  | > 100 µM |  | > 100 µM |  |  |  | > 100 µM |  | > 100 µM |
| C=C1CCC2C3(C)COC(c4ccccc4Cl)OC3CCC2(C)C1/C=C/C1=CCOC1=O (stereo not given) | 3.55 µM | 72.9 µM | > 100 µM | > 100 µM | > 100 µM | > 100 µM | 3.97 µM | > 100 µM | 38.7 µM | > 100 µM | 4.48 µM | > 100 µM | 6.18 µM | > 100 µM | 1.16 µM | 9.97 µM | 24 µM | > 100 µM | 24 µM | > 100 µM |
| CN1CCN(CCCOc2cc(O)c3c(=O)cc(-c4ccccc4)oc3c2)CC1 | 21.1 µM | 46 µM | 16.6 µM | 32 µM | 19.4 µM | 38.4 µM | 16.9 µM | 44.6 µM | 16 µM | 29.4 µM |  |  | 19.9 µM | 43.3 µM | 21.3 µM | 55.2 µM | 17.2 µM | 33.1 µM | 15.1 µM | 29 µM |
| COc1ccc(CC2C(=O)OC(C)C(NC(=O)c3c4nc5c(C(=O)NC6C(=O)NC(C(C)C)C(=O)N7CCCC7C(=O)N(C)CC(=O)N(C)C(Cc7ccc(OC)cc7)C(=O)OC6C)ccc(C)c5oc-4c(C)c(=O)c3N)C(=O)NC(C(C)C)C(=O)N3CCCC3C(=O)N(C)CC(=O)N2C)cc1 (stereo not given) (I: TVP[Sar][NMeY](Me) / II: TVP[Sar][NMeY](Me); ester I:1-I:C, II:1-II:C; linker I:N-II:N via Actinocin(1to9); configuration not given here) |  | 0.246 µM |  |  | < 0.01 µM and 0.0582 µM |  | 0.000646 µM | > 0.374 µM |  | > 0.591 µM | < 0.01 µM and 0.00298 µM | 1.12 µM and > 1 µM |  |  |  | < 0.01 µM |  |  | 0.00189 µM | > 1 µM |
